Assay results taken from the NIST ThermoML archive (doi:10.1016/j.jct.2013.08.016).

Columns and labels:
[1] = mn = molality of the nth substance listed, in mol/kg; conditions: 101.3 kPa, Liquid; for viscosity: Capillary tube (Ostwald / Ubbelohde) method; for mass density: Pycnometric method; for speed of sound: Single path-length method
[2] = refractive index (Na D-line) (dimensionless); mn = molality of the nth substance listed, in mol/kg; conditions: 101.3 kPa, Liquid, Standard Abbe refractometry

O=C1O[C@H]([C@@H](O)CO)C(O)=C1O [L-ascorbic acid] + O
Conditions | mass density, [1] [kg/m3] | refractive index, [2] | speed of sound, [1] [m/s] | viscosity, [1] [mPa·s]
278.15 K, m1 = 0.0502 | 1003.69 | 1.3353 | 1429.5 | 1.566
278.15 K, m1 = 0.0997 | 1007.29 | 1.3365 | 1432.8 | 1.606
278.15 K, m1 = 0.1384 | 1010.1 | 1.3378 | 1434.7 | 1.634
278.15 K, m1 = 0.1964 | 1014.25 | 1.3394 | 1438.5 | 1.668
278.15 K, m1 = 0.2338 | 1016.85 | 1.3405 | 1440.5 | 1.699
278.15 K, m1 = 0.2927 | 1020.96 | 1.3419 | 1443.6 | 1.737
278.15 K, m1 = 0.3392 | 1024.27 | 1.3434 | 1445.3 | 1.77
278.15 K, m1 = 0.4069 | 1028.56 | 1.3448 | 1448.9 | 1.813
278.15 K, m1 = 0.4383 | 1030.63 | 1.3459 | 1451.3 | 1.842
278.15 K, m1 = 0.4932 | 1034.36 | 1.3472 | 1454.6 | 1.874
278.15 K, m1 = 0.5541 | 1038.24 | 1.3489 | 1458.2 | 1.921
278.15 K, m1 = 0.6251 | 1042.79 | 1.351 | 1463.2 | 1.974
278.15 K, m1 = 0.711 | 1048.36 | 1.3533 | 1467.3 | 2.033
278.15 K, m1 = 0.7457 | 1050.45 | 1.3544 | 1469.1 | 2.05
288.15 K, m1 = 0.0496 | 1002.68 | 1.3348 | 1468.6 | 1.165
288.15 K, m1 = 0.1009 | 1006.33 | 1.3364 | 1471.2 | 1.184
288.15 K, m1 = 0.1408 | 1009.14 | 1.3378 | 1473.2 | 1.205
288.15 K, m1 = 0.1952 | 1012.94 | 1.339 | 1476.3 | 1.236
288.15 K, m1 = 0.2426 | 1016.2 | 1.34 | 1479 | 1.257
288.15 K, m1 = 0.2997 | 1020.14 | 1.3417 | 1481.7 | 1.282
288.15 K, m1 = 0.3402 | 1022.83 | 1.3428 | 1483.8 | 1.288
288.15 K, m1 = 0.3936 | 1026.48 | 1.3441 | 1487.6 | 1.325
288.15 K, m1 = 0.4492 | 1030.03 | 1.3456 | 1489.1 | 1.353
288.15 K, m1 = 0.5096 | 1034.09 | 1.3471 | 1492.7 | 1.386
288.15 K, m1 = 0.5782 | 1038.38 | 1.3489 | 1496.4 | 1.424
288.15 K, m1 = 0.6302 | 1041.56 | 1.3499 | 1499.1 | 1.444
288.15 K, m1 = 0.6984 | 1046.01 | 1.352 | 1501.6 | 1.475
288.15 K, m1 = 0.7426 | 1048.42 | 1.3529 | 1503.6 | 1.494
298.15 K, m1 = 0.0502 | 1000.6 | 1.3339 | 1498.9 | 0.9072
298.15 K, m1 = 0.1017 | 1004.18 | 1.3354 | 1501.5 | 0.9235
298.15 K, m1 = 0.1409 | 1006.8 | 1.3365 | 1503.4 | 0.935
298.15 K, m1 = 0.1988 | 1010.73 | 1.338 | 1505.2 | 0.9544
298.15 K, m1 = 0.2402 | 1013.54 | 1.3391 | 1506.7 | 0.9688
298.15 K, m1 = 0.2987 | 1017.33 | 1.3407 | 1508.9 | 0.9928
298.15 K, m1 = 0.3421 | 1020.12 | 1.3418 | 1510.9 | 1.007
298.15 K, m1 = 0.4046 | 1024.34 | 1.3431 | 1514.2 | 1.028
298.15 K, m1 = 0.4536 | 1027.31 | 1.3443 | 1518.2 | 1.046
298.15 K, m1 = 0.5119 | 1030.98 | 1.3461 | 1520 | 1.068
298.15 K, m1 = 0.5788 | 1035.16 | 1.3478 | 1521.8 | 1.093
298.15 K, m1 = 0.6259 | 1038.06 | 1.3497 | 1523.6 | 1.111
298.15 K, m1 = 0.6974 | 1042.37 | 1.3508 | 1525.5 | 1.141
298.15 K, m1 = 0.7486 | 1045.37 | 1.3518 | 1527.3 | 1.164
